According to article PMC10541502 (Science Advances, 2023):
Ends that are not written are not given here.

System: C57BL/6 mice
Conditions: mouse

| Sequence | In vivo toxicity, overall finding |
| --- | --- |
| MSPSILKHWSRQGGGKLKKLLLGLLLKK [F6P1] | did not induce primary toxic irritation |
| MSPSILKHWSRQGGGKKLLGLLLKLKLK [F6P6] | did not induce primary toxic irritation |
